Assays:
U87 cell line = assay: cytotoxicity in glioblastoma cells, dose response, cytotoxicity control for Wee1 degradation inhibitor project, cell-based, luminescence, U87, U87 vII (AID 504935); conditions: luminescence viability
U87 vII cell line = assay: as above; conditions: luminescence viability

SMILES: O=[N+]([O-])c1cccc2[nH]c(CNc3nc(N4CCOCC4)nc4c3ncn4-c3ccsc3)nc12
- IC50 (U87 cell line): 95.1 nM
- IC50 (U87 vII cell line): 23.4 nM
